Reference: a melting point compilation (Tetko et al.; mined from patent text by program, amines drawn as free bases though some values may be those of a salt)

SMILES | melting point
C#CCC1CCC(=O)C(C(=O)c2ccc(S(C)(=O)=O)cc2[N+](=O)[O-])C1=O (stereo not drawn) | 65 to 70 °C
O=C(O)c1cc(-c2ccc(C(F)(F)F)cc2)nc(C(F)(F)F)c1 | 204 to 205 °C
COCCOc1cc(N)c(S(C)(=O)=O)cc1[N+](=O)[O-] | 166 to 167 °C
NS(=O)(=O)c1ccc(-c2cnn(CC(F)(F)F)c(=O)c2Oc2ccc(F)cc2)cc1 | 150 to 152 °C
Fc1ccc2[nH]cc(C3=CCN(CC4COc5ccc6c(c5O4)OCCC6)CC3)c2c1 (stereo not drawn) | 146 to 148 °C
COc1ccc2c(c1)C(=O)c1c-2c(Nc2ccc(C(C)=O)cc2)nc2ccccc12 | 251 to 252 °C
Cc1[nH]c(=O)ccc1-c1ccccc1 | 201 to 208 °C
CCN1C(=O)CCCc2cc(Nc3ncc(Cl)c(N[C@H]4[C@@H](C(N)=O)[C@@H]5C=C[C@H]4C5)n3)c(OC)cc21 | 145 to 153 °C
CCOC(=O)C(CCCCOc1ccccc1)C(=O)O (stereo not drawn) | 69 to 72 °C
CN(C)CC(Cc1ccccc1)NC(=O)c1ccccc1 (stereo not drawn) | 110 °C
CC(=CCO)CS(=O)(=O)c1ccccc1 | 55 to 56.5 °C
CCN1CCC(C(=O)O)(S(=O)(=O)c2ccc(OC)cc2)CC1 | 209 °C
CC(=O)c1ccc(OCCOc2ccc3ccccc3c2)c([N+](=O)[O-])c1 | 158 to 160 °C
N[C@@]1(C(=O)O)C[C@H](NC(=O)Nc2cccc(Cl)c2)[C@H]2[C@H](C(=O)O)[C@H]21 (relative stereo) | > 250 °C
O=C1COC(C#Cc2ccccc2)(C(F)(F)F)c2cc(Cl)ccc2N1 (stereo not drawn) | 190 to 191 °C
Clc1ccc(C2CCc3ccccc3O2)cc1 (stereo not drawn) | 76 to 77 °C
Cn1cc(-c2nnn[nH]2)c(=O)c2ccccc21 | 306 °C
Cc1ccnc(C(C#N)Sc2nc(N)cc(Cl)n2)c1 (stereo not drawn) | 145 to 146 °C
CC(=O)N[C@@H](CSC(=O)C(C)C)C(=O)NCCSC(=O)C(C)C | 99 to 100 °C
CCOc1ccc2ccccc2c1C(=O)N1CCC(NS(=O)(=O)c2cc(S(=O)(=O)c3ccccc3)ccc2C(C)C)CC1 | 164 to 166 °C
N#CC(C#N)=CCOCCc1ccccc1 | 135 to 136 °C
COc1cccc(OC(=O)NC2C(=O)N(CCC(C)C)c3cc(Cl)ccc3N(c3ccccc3)C2=O)c1 (stereo not drawn) | 129 to 130 °C
CCCCN(Cc1ccc(-c2ccccc2-c2nnn[nH]2)cc1)c1ncncc1C(=O)OC(C)OC(=O)C(C)(C)C (stereo not drawn) | 71 to 85 °C
COC(=O)C=Cc1ccc(CO)cc1 | 86 to 87 °C
CCOC(=O)Cc1csc(-c2cccc(Br)c2)n1 | 65 to 70 °C

SMILES | melting point
COC(=O)[C@@H](C)c1ccc2c(Br)c(OC)ccc2c1 | 94 to 95 °C
Cn1c(-c2ccc(N3CCOCC3)cc2)cnc1[C@H](Cc1ccccn1)N(C=O)c1cc2cc(F)ccc2o1 | 130 to 132 °C
Fc1ccc(C(c2ccc(F)cc2)c2cc(Cl)cc(Cl)c2S)cc1 | 95 °C
COCCNC(=O)c1cccc(-c2cccc3oc(Cc4ccc(F)c(Cl)c4)cc23)c1 | 77 to 78 °C
CCCc1nn(-c2ccc(C(F)(F)F)cn2)cc1C(=O)OCC | 102 to 103 °C
COC1(c2cccc(S(=O)(=O)c3ccc4c(ccc(=O)n4C)c3)c2)CCOCC1 | 204 to 207 °C
CC(=O)N1c2ccccc2Sc2cc([N+](=O)[O-])ccc21 | 144 to 146 °C
CCOC(=O)c1cn(Cc2ccccc2)nc1OCc1ccc(OCc2nc(-c3ccco3)oc2C)c(OCC)c1 | 121 to 122 °C
CNS(=O)(=O)c1ccc(CCN2CC=C(c3c[nH]c(-c4ccc(F)cc4)c3-c3ccncc3)CC2)cc1OC | 245 to 247 °C
[N-]=[N+]=Nc1c([N+](=O)[O-])cnn1-c1c(Cl)cc(C(F)(F)F)c(Cl)c1Cl | 84 to 88 °C
Nc1nccn2c(C3CCC3)nc(-c3cccc(OCc4ccccc4)c3F)c12 | 88 to 89 °C
COCc1c(C(=O)OC(C)C)ncc2[nH]c3cccc(Oc4ccccc4)c3c12 | 201 to 203 °C
CC(=O)O/N=C(\C)[C@H]1CC[C@H]2[C@@H]3CCC4=CC(=O)CC[C@]4(C)[C@H]3CC[C@]12C | 158 to 160 °C
COC1CC(C)(C)Cc2c1c(C)nn2-c1ccccn1 (stereo not drawn) | 66 to 68 °C
CCOC(=O)CCC1CCC(=O)N1 (stereo not drawn) | 60 to 61 °C
COc1cc([N+](=O)[O-])ccc1S(=O)(=O)n1c(=O)n(-c2ccccc2)c2cc(Cl)ccc21 | > 250 °C
O=C(NCCCCC1CCSS1)N1CCCC1 (stereo not drawn) | 91 to 93 °C
Cn1cc(C2=C(c3c4n(c5ccccc35)CCC(CCN=[N+]=[N-])C4)C(=O)NC2=O)c2ccccc21 (stereo not drawn) | 262 to 264 °C
CCCCC(C(=O)O)c1cccc(Oc2ccccc2C)c1O (stereo not drawn) | 83 to 84 °C
Nc1ccccc1-c1ccc(C(O)CCC(=O)O)cc1 (stereo not drawn) | 102 to 103 °C
CC(C)(N)c1ccc(-c2nc(Nc3ccc(F)cc3)ncc2C#N)cc1 | 228 to 229 °C
COc1ccc(C(=O)Oc2ccc(C(=O)O)cc2C(=O)O)cc1C12CC3CC(CC(C3)C1)C2 | 172 to 173 °C
Cc1cccc(N2CCCC2=O)c1CNc1cccn2c(C)c(C)nc12 | 138 to 141 °C
CCc1noc(-c2ncn(-c3cccnc3)c2C)n1 | 127 to 128 °C
Cc1ccc(-c2nc(CCl)co2)s1 | 84 to 85 °C

SMILES | melting point
COc1ccc(C(=O)O)c(N)c1OC | 183 to 184 °C
CN1C(=O)[C@]2(C)CC[C@](NCC(=O)N3CCC[C@H]3C#N)(C1=O)C2(C)C | 141 to 144 °C
CCOC(=O)C(OCC)C(=O)Nc1cc(Cl)cc(Cl)c1 (stereo not drawn) | 84 to 86 °C
O=C(NCO)C(Nc1ccccc1[N+](=O)[O-])c1c(Cl)cccc1Cl (stereo not drawn) | 175 °C
O=C(NCCN1CCc2ccc3c(c21)CCO3)C1CC1 | 147 to 149 °C
CCCCCCCCOc1cc2cc(C(=O)OC)c(C(=O)OC)c(-c3ccnc(Cl)c3)c2cc1OC | 93 to 97 °C
COc1ccc(C2SCc3c(sc(N)c3C(=O)c3cccc4ccccc34)S2)cc1 (stereo not drawn) | 132 to 134 °C
C=CCN(CC=C)S(=O)(=O)c1ccc([N+](=O)[O-])cc1[N+](=O)[O-] | 105 to 106 °C
CCc1sc2nc(C(=O)O)cn2c1C | 243 to 245 °C
CCOC(=O)CCNCC(O)COc1ccc(OC)cc1C#N (stereo not drawn) | 76 °C
O=C(O)c1ccc(-c2ccc(I)c(O)c2)cc1 | 174 °C
CNC(=O)c1ccc(C2=NOC(c3cc(Cl)cc(Cl)c3)(C(F)(F)F)C2)cc1C (stereo not drawn) | 184 to 185 °C
CCOC(=O)C1(C(=O)OCC)OC(=O)c2ccccc2C1(O)c1ccc(F)cc1 (stereo not drawn) | 102 to 104 °C
O=c1ccc(S(=O)(=O)c2cc3ccc(F)cc3[nH]2)n[nH]1 | > 250 °C
CC(=O)N1CCc2ccc(S(=O)(=O)n3c(CCCC(=O)O)cc4cc(Cl)ccc43)cc2C1 | 95 to 97 °C
CCOC(=O)Nc1ccc(C2CCN(C(=O)OC(C)(C)C)CC2)cc1 | 126 to 128 °C
CCOCC(=O)OCC(=O)C1(O)CCC2C3CC(C)C4=CC(=O)C=CC4(C)C3C(O)CC21C (stereo not drawn) | 229 °C
Cc1ccc(S(=O)(=O)n2cncn2)cc1 | 105 to 107 °C
O=C1c2ccccc2C(=O)c2cc(S(=O)(=O)O)ccc21 | 208 to 211 °C
CC(=C(C#N)C(=O)c1ccc(F)cc1)N(C)C | 65 to 67 °C
C#CCON=C(C(C)=NOCc1ccccc1C(=COC)C(=O)OC)c1ccccc1 | 163 to 165 °C
COc1ccc(S(=O)(=O)C2(C(=O)NO)CCN(Cc3ccc(OCCN4CCCCC4)cc3)CC2)cc1 | 114 °C
O=C(C=Cc1ccccc1)Nc1cccc(O)c1 | 222 to 223 °C
Cc1nc(N)nc(N)c1CCCc1ccc(Cl)cc1Cl | 181 to 185 °C
COc1cc(C(C)NC(=O)OCC2c3ccccc3-c3ccccc32)c([N+](=O)[O-])cc1OCCCC(=O)O (stereo not drawn) | 200 to 201 °C

SMILES | melting point
CCc1c(Br)c2ccccn2c1C(=O)c1cc(Br)c(O)c(Br)c1 | 195 °C
CC(C)(NC=O)c1ccc(C(F)(F)C(F)(F)c2ccccc2)cc1 | 116 to 117 °C
O=c1c2ccc(Cl)cc2[nH]n2cccc12 | > 300 °C
O=C1c2cccnc2N(c2ccccc2)C(=O)C12CCCC2 | 178 to 179 °C
CCOc1cc2nc(NC)nc(-c3cccc(-c4cnc5ccccc5c4)c3)c2cc1OCC | 157 to 159 °C
CONC(=O)c1cc(C(=O)OC)c(O)c2ncc(Cc3ccc(F)cc3)cc12 | 200 to 201 °C
COc1c(N2C[C@]3(C)CC[C@]3(N)C2)c(F)cc2c(=O)c(C(=O)O)cn([C@@H]3C[C@@H]3F)c12 | 123 to 125 °C
C#CCCCCCCCCCCCCCCCCCCCC(=O)OC(C)(C)C | 44 to 45 °C
C[C@@H](C(N)=O)c1ccc(NS(=O)(=O)c2ccc(Cl)cc2)cc1 | 150 to 153 °C
c1ccc(CN2CC3Cc4ccccc4OC3C2)cc1 (stereo not drawn) | 68 to 70 °C
CNC(=O)CNC(=O)c1cncc(F)c1 | 201 to 202 °C
COC(=O)Cc1cc2c(c([N+](=O)[O-])c1)N(C(C)=O)CC2 | 136 to 137 °C
CNS(=O)(=O)c1ccccc1Nc1nc(Nc2ccc3c(c2)CCN(CCOC)CC3)ncc1Cl | 102 to 108 °C
CCCCOC(=O)C(OC(=O)C(C)C)OC(=O)N1CCN(c2cc3c(cc2F)c(=O)c(C(=O)O)cn3CC)CC1 (stereo not drawn) | 152 to 160 °C
O=c1[nH]cc2n1-c1ccc(Cl)cc1C(c1ccccc1F)=NC2 | 247 to 250 °C
Cc1c(C)n(CC=Cc2ccccc2)c2c(OCc3ccc(F)cc3)nncc12 | 124 to 126 °C
CC(C)C1(C)N=C2c3nc4occc4cc3C(=O)N2C1=O (stereo not drawn) | 193 to 205 °C
COc1cc(N)c2ncccc2c1OCc1ccc(Cl)cc1 | 122 to 123 °C
O=c1[nH]ncc(N2CCN(C34CC5CC(CC(C5)C3)C4)CC2)c1Cl | 292 to 294 °C
CCCCn1cc(C(=O)O)c2ccc(Cl)cc21 | 149 to 151 °C
COc1ccc(C=O)cc1CCl | 55 to 57 °C
CCN1CCN(C(=O)N2CCC(N3N=C(c4ccc(OC)c(OC)c4)[C@H]4CC=CC[C@H]4C3=O)CC2)C(=O)C1=O | 226 to 228 °C
CCCCCCCCCCCCP(=O)(O)CCCN | 175 to 177 °C
